Results reported in patent US6432426B1, “Non-staining topical iodine composition and method” (Symbollon Corporation, priority 1998, dated 2002).

What was measured:
Type in all cases: in vivo
[1] = system: Staphylococcus epidermidis; assay: Residual biocidal effect of skin associated iodine, repeated experiment; conditions: saturated molecular iodine solution (320 ppm)
Staphylococcus aureus = assay: Residual biocidal effect of skin associated iodine, colony counts from inoculated treated skin; conditions: 320 ppm saturated molecular iodine solution, 30 second contact; inoculated two hours after contact, sampled ninety minutes after inoculation
Method: 5. […] […] […] […] The samples were contacted with the arm for 30 seconds. After contact the treated arm was flushed with water for 15 seconds and dried.
[…] Two hours after contact each area was inoculated with […] of a 1:100 dilution of a 48 hour soy-trypticase culture of Staphylococcus aureus. Ninety minutes after inoculation the mouths of sterile 25 mL flasks filled with 2 mL of soy-trypticase with 2% Tween 80 were placed over the marked skin areas. The flasks were gently shaken for 1 minute and a colony count was performed on blood agar plates after incubation at 37° C. for 48 hours. The residual biocidal effect from skin associated molecular iodine was determined by subtracting the log of the colony counts from the areas of skin that were contacted with iodine from the controls (log colony count from untreated skin). The average difference in colony counts between treated and untreated skin was 2.4 logs.

Human Skin = assay: Diffusion of iodine from skin post application (DPD absorbance at 553 nm); conditions: average of three subjects
Method: 2. Three samples from Example 1 were used to confirm that molecular iodine will penetrate into skin and remain in the skin for a prolonged time period.
Application of the iodine solution onto skin was performed as described in Example 1 above with the exception that the contacted area was flushed with water for 15 seconds immediately after following contact between the iodine solution and skin. The method of Goftardi (J. Hosp. Infect., 1995, Vol 29, pages 9-18) were used to measure the amount of molecular iodine coming out of the skin. Briefly, 1 mL of a diethyl-p-phenylenediamine (DPD) solution was placed concentrically onto the exposed area of skin and left there for 30 seconds. This solution was then transferred to a 1 cm cuvette and the absorbance was read at 553 nm. Control values were obtained by contacting the DPD solution to an unexposed area on the forearm of each subject. Control values were subtracted from the experimental measurements. Iodine solutions containing 50 ppm, 150 ppm and 300 ppm of molecular iodine were used for this example. Two measurements were made (one measurement of each forearm) at each iodine concentration on all three subjects.

Streptococcus agalactica = assay: Residual biocidal effect of skin associated iodine, repeated experiment; conditions: saturated molecular iodine solution (320 ppm)

With II [Molecular Iodine, molecular iodine] the “Residual biocidal efficacy on skin” value [1] was “Efficacy was also demonstrated”, the “Average difference in colony counts between treated and untreated skin” value (Staphylococcus aureus) was 2.4 logs and the “Mean absorbance (DPD, 553 nm), iodine diffusing from skin” value (shortened to “Mean absorbance (DPD, 553 nm)”) (Human Skin; 50 ppm I2, 3 minutes after application) was 0.06. The “Mean absorbance (DPD, 553 nm)” value (Human Skin; 50 ppm I2, 6 minutes after application) was 0.17, the “Mean absorbance (DPD, 553 nm)” value (Human Skin; 50 ppm I2, 20 minutes after application) was 0.19 and the “Mean absorbance (DPD, 553 nm)” value (Human Skin; 50 ppm I2, 60 minutes after application) was 0.18. For the same molecule, the “Mean absorbance (DPD, 553 nm)” value (Human Skin; 50 ppm I2, 90 minutes after application) was 0.13, the “Mean absorbance (DPD, 553 nm)” value (Human Skin; 50 ppm I2, 120 minutes after application) was 0.08 and the “Mean absorbance (DPD, 553 nm)” value (Human Skin; 50 ppm I2, 240 minutes after application) was 0.06. For the same molecule, the “Mean absorbance (DPD, 553 nm)” value (Human Skin; 50 ppm I2, 660 minutes after application) was 0.02, the “Mean absorbance (DPD, 553 nm)” value (Human Skin; 150 ppm I2, 3 minutes after application) was 0.32 and the “Mean absorbance (DPD, 553 nm)” value (Human Skin; 150 ppm I2, 6 minutes after application) was 0.31. The “Mean absorbance (DPD, 553 nm)” value (Human Skin; 150 ppm I2, 20 minutes after application) was 0.48, the “Mean absorbance (DPD, 553 nm)” value (Human Skin; 150 ppm I2, 60 minutes after application) was 0.53 and the “Mean absorbance (DPD, 553 nm)” value (Human Skin; 150 ppm I2, 90 minutes after application) was 0.50. For the same molecule, the “Mean absorbance (DPD, 553 nm)” value (Human Skin; 150 ppm I2, 120 minutes after application) was 0.46, the “Mean absorbance (DPD, 553 nm)” value (Human Skin; 150 ppm I2, 240 minutes after application) was 0.36 and the “Mean absorbance (DPD, 553 nm)” value (Human Skin; 150 ppm I2, 660 minutes after application) was 0.20. The “Mean absorbance (DPD, 553 nm)” value (Human Skin; 300 ppm I2, 3 minutes after application) was 0.78, the “Mean absorbance (DPD, 553 nm)” value (Human Skin; 300 ppm I2, 6 minutes after application) was 0.65 and the “Mean absorbance (DPD, 553 nm)” value (Human Skin; 300 ppm I2, 20 minutes after application) was 1.11. The “Mean absorbance (DPD, 553 nm)” value (Human Skin; 300 ppm I2, 60 minutes after application) was 0.93, the “Mean absorbance (DPD, 553 nm)” value (Human Skin; 300 ppm I2, 90 minutes after application) was 0.77 and the “Mean absorbance (DPD, 553 nm)” value (Human Skin; 300 ppm I2, 120 minutes after application) was 0.64. The “Mean absorbance (DPD, 553 nm)” value (Human Skin; 300 ppm I2, 240 minutes after application) was 0.57, the “Mean absorbance (DPD, 553 nm)” value (Human Skin; 300 ppm I2, 660 minutes after application) was 0.40 and the “Residual biocidal efficacy on skin” value (Streptococcus agalactica) was “Efficacy was also demonstrated”.
